pIC50: −log10 of the molar value.
Assays:
[1] = test system: WI-38 cell line (normal embryonic lung tissue); format: cell-based
[2] = test system: P. falciparum strain Dd2 (chloroquine-resistant); assay: P. falciparum in vitro growth inhibition assay; format: cell-based, Plasmodium falciparum; details: for antiplasmodial activity in words: highest concentration tested 25 μM

COC(=O)CCC(=O)OC/C(C)=C/C(=O)OC[C@]1(O)[C@H]2C[C@H]2[C@]2(C)[C@@H]3C[C@@]4(OO)C5=C(/C(=C(\C)C(=O)OC)C(=O)[C@H](O)[C@@]5(C)[C@@H]5C[C@@H]54)[C@@]34OC(=O)C(CO)=C4C[C@@H]12 [Compound 4, Fortunilide D]
increase of toxicity toward mammalian cells compared with counterpart ([1]; human, 24 h): 6 fold

COC(=O)/C(C)=C1/C(=O)[C@H](O)[C@]2(C)C3=C(C[C@@H]4[C@]5(OC(=O)C6=C5C[C@H]5[C@](O)(COC(=O)/C=C(\C)COC(=O)CCC(=O)OC6)[C@H]6C[C@H]6[C@]45C)[C@H]31)[C@H]1C[C@H]12 [Compound 7, Fortunilide G]
decrease of mammalian cytotoxicity compared with counterpart ([1]; human, 24 h): 5 fold

COC(=O)/C(C)=C1\C(=O)[C@H](O)[C@]2(C)C3=C(C[C@@H]4[C@]5(OC(=O)C(C)=C5C[C@H]5[C@H](COC(C)=O)[C@H]6C[C@H]6[C@]45C)[C@H]31)[C@H]1C[C@H]12 [Compound 25, shizukaol E]
antiplasmodial activity in words [2]: micromolar range

C/C=C(\C)C(=O)OC[C@]1(O)[C@H]2C[C@H]2[C@]2(C)[C@@H]3C[C@@]4(O)C5=C(/C(=C(\C)C(=O)OC)C(=O)[C@H](O)[C@@]5(C)[C@@H]5C[C@@H]54)[C@@]34OC(=O)C(COC(C)=O)=C4C[C@@H]12 [Compound 27, sarcandrolide E]
antiplasmodial activity in words [2]: inactive

COC(=O)/C(C)=C1\C(=O)[C@H](O)[C@]2(C)C3=C(C[C@@H]4[C@]5(OC(=O)C6=C5C[C@H]5[C@](O)(COC(=O)/C(C)=C/COC(=O)[C@@H](O)CC(=O)OC6)[C@H]6C[C@H]6[C@]45C)[C@H]31)[C@H]1C[C@H]12 [Compound 29, shizukaol G]
increase of toxicity toward mammalian cells compared with counterpart ([1]; human, 24 h): ~ 10 fold

C=C1[C@@H]2C[C@@H]2[C@]2(C)[C@@H]3CC4=C5[C@H](/C(=C(\C)C(=O)OC)C(=O)[C@H](O)[C@@]5(C)[C@@H]5C[C@H]45)[C@@]34OC(=O)C(C)=C4C[C@@H]12 [Compound 32, shizukaol A]
antiplasmodial activity in words [2]: micromolar range

shizukaol C [Compound 17]
pIC50 ([2]; read-out: P. falciparum IC50, Table 6): 7.68 | pIC50 ([1]; read-out: WI-38 IC50, WI-38 cell line, 24 h incubation): 6.11

— publication PMC5327789 (Journal of natural products, 2016)
